Target: human σ1 receptor (Homo sapiens, UniProt Q99720)
Assay: Human σ1 receptor radioligand assay ([3H](+)-pentazocine, transfected HEK-293 membranes)
Assay type: binding
Parameters: μ and σ1 dual binding: key to the marks not given beside the values
Conditions: one class symbol for both Ki-σ1 (human σ1 receptor, A1) and Ki-μ (human μ-opioid receptor, A2)
Experimental: Human σ1 Receptor Radioligand Assay
To investigate binding properties of test compounds to human σ1 receptor, transfected HEK-293 membranes and [^3H](+)-pentazocine (Perkin Elmer, NET-1056), as the radioligand, were used. The assay was carried out with 7 μg of membrane suspension, 5 nM of [^3H](+)-pentazocine in either absence or presence of either buffer or 10 μM Haloperidol for total and non-specific binding, respectively. Binding buffer contained Tris-HCl 50 mM at pH 8. Plates were incubated at 37° C. for 120 minutes. After the incubation period, the reaction mix was then transferred to MultiScreen HTS, FC plates (Millipore), filtered and plates were washed 3 times with ice-cold 10 mM Tris-HCL (pH7.4). Filters were dried and counted at approximately 40% efficiency in a MicroBeta scintillation counter (Perkin-Elmer) using EcoScint liquid scintillation cocktail

Chain of human σ1 receptor (Q99720 whole entry): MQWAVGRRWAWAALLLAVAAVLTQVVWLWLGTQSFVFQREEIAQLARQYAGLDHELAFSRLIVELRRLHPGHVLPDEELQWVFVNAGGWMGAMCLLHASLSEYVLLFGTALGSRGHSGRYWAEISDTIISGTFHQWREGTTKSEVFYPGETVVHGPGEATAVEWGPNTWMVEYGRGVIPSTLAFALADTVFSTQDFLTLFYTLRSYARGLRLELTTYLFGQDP

| SMILES | μ and σ1 dual binding |
| --- | --- |
| CCC1(N2CCN(CCC(C)C)CC2)CCOC(C)(C)C1 (centres unmarked) [Example 78, 1-(4-ethyl-2,2-dimethyltetrahydro-2H-pyran-4-yl)-4-isopentylpiperazine] | ++ |
| CC(C)OCCN1CC2CN(C3(C(=O)c4ccccn4)CCOC(C)(C)C3)CC2C1 (centres unmarked) [Example 73, (4-(5-(2-isopropoxyethyl)hexahydropyrrolo[3,4-c]pyrrol-2(1H)-yl)-2,2-dimethyltetrahydro-2H-pyran-4-yl)(pyridin-2-yl)methanone] | ++ |
| O=C(c1ccccn1)C1(N2CCN(Cc3ccccc3)CC2)CCOC1 (centres unmarked) [Example 20, (3-(4-benzylpiperazin-1-yl)tetrahydrofuran-3-yl)(pyridin-2-yl)methanone] | ++ |
| CC(C)CCN1CCN([C@@]2(C)CCO[C@@H](C)C2)CC1 [Example 161, 1-((2S,4S)-2,4-dimethyltetrahydro-2H-pyran-4-yl)-4-isopentylpiperazine] | ++ |
| CC1(C)CC(C(=O)c2ccccn2)(N2CCN(Cc3ccccn3)CC2)CCO1 (centres unmarked) [Example 50, (2,2-dimethyl-4-(4-(pyridin-2-ylmethyl)piperazin-1-yl)tetrahydro-2H-pyran-4-yl)(pyridin-2-yl)methanone] | ++ |
| CC1(C)CC(C(=O)c2ccccn2)(C2CCN(Cc3ccc(F)cc3)CC2)CCO1 (centres unmarked) [Example 109, (4-(1-(4-fluorobenzyl)piperidin-4-yl)-2,2-dimethyltetrahydro-2H-pyran-4-yl)(pyridin-2-yl)methanone] | ++ |
| c1ccc(CN2CCN(C3(c4ccccc4)CCOCC3)CC2)cc1 [Example 30, 1-benzyl-4-(4-phenyltetrahydro-2H-pyran-4-yl)piperazine] | ++ |
| CC(C)OCCN(C)[C@H]1CCN([C@]2(C(=O)c3ccccn3)CCOC(C)(C)C2)C1 [Example 146, ((R)-4-((S)-3-((2-isopropoxyethyl)(methyl)amino)pyrrolidin-1-yl)-2,2-dimethyltetrahydro-2H-pyran-4-yl)(pyridin-2-yl)methanone] | ++ |
| CN(Cc1ccccc1)[C@@H]1CCN([C@@]2(C(=O)c3ccccn3)CCOC(C)(C)C2)C1 [Example 143] | ++ |
| CC1(C)C[C@@](C(=O)c2ccccn2)(N2CCN(Cc3ccccc3)CC2)CCO1 [Example 2, (S)-(4-(4-benzylpiperazin-1-yl)-2,2-dimethyltetrahydro-2H-pyran-4-yl)(pyridin-2-yl)methanone] | ++ |
| CC[C@@]1(N2CCN(CCOC(C)C)CC2)CCO[C@@H](C)C1 [Example 158, 1-((2S,4R)-4-ethyl-2-methyltetrahydro-2H-pyran-4-yl)-4-(2-isopropoxyethyl)piperazine] | ++ |

Same assay, conditions: one class symbol for both Ki-σ1 (human σ1 receptor, A1) and Ki-μ (human μ-opioid receptor, A2); read-out: μ and σ1 dual binding

| Ki | SMILES |
| --- | --- |
| > 500 nM | C=CC1(N2CCN(CCc3ccccc3)CC2)CCOC(C)(C)C1 (centres unmarked) [Example 45, 1-(2,2-dimethyl-4-vinyltetrahydro-2H-pyran-4-yl)-4-phenethylpiperazine] |
| > 500 nM | CCOCCN1CCN(C2(C(=O)c3ccccn3)CCOC(C)(C)C2)CC1 (centres unmarked) [Example 67, (4-(4-(2-ethoxyethyl)piperazin-1-yl)-2,2-dimethyltetrahydro-2H-pyran-4-yl)(pyridin-2-yl)methanone] |
| > 500 nM | CC[C@]1(N2CCN(Cc3ccc(C#N)cc3)CC2)CCO[C@@H](C)C1 (stereo in doubt) [Example 187, 4-((4-(4-ethyl-2-methyltetrahydro-2H-pyran-4-yl)piperazin-1-yl)methyl)benzonitrile] |
| > 500 nM | N#Cc1ccc(CN2CCN(C3(C(=O)c4ccccn4)CCOCC3)CC2)cc1F [Example 192, 2-fluoro-4-((4-(4-picolinoyltetrahydro-2-pyran-4-yl)piperazin-1-yl)methyl)benzonitrile] |
| > 500 nM | COc1cc(CN2CCN(C3(C(=O)c4ccccn4)CCOCC3)CC2)ccc1F [Example 198, (4-(4-(4-fluoro-3-methoxybenzyl)piperazin-1-yl)tetrahydro-2H-pyran-4-yl)(pyridin-2-yl)methanone] |
| > 500 nM | CC(C)OCCN1CCN([C@]2(C(=O)c3ccccn3)CCO[C@H](C)C2)CC1 [Example 189, ((2R,4R)-4-(4-(2-isopropoxyethyl)piperazin-1-yl)-2-methyltetrahydro-2H-pyran-4-yl)(pyridin-2-yl)methanone] |

| SMILES | Ki |
| --- | --- |
| CC(C)OCCN(C)[C@@H]1CCN([C@]2(C(=O)c3ccccn3)CCOC(C)(C)C2)C1 [Example 144, ((R)-4-((R)-3-((2-isopropoxyethyl)(methyl)amino)pyrrolidin-1-yl)-2,2-dimethyltetrahydro-2H-pyran-4-yl)(pyridin-2-yl)methanone] | < 500 nM |
| CC[C@]1(N2CCN(CCc3ccccc3)CC2)CCOC(C)(C)C1 [Example 112, (S)-1-(4-ethyl-2,2-dimethyltetrahydro-2H-pyran-4-yl)-4-phenethylpiperazine] | < 500 nM |
| C[C@H]1C[C@@](C(=O)c2ccccn2)(N2CCN(CCc3ccccc3)CC2)CCO1 [Example 241, ((2S,4S)-2-methyl-4-(4-phenethylpiperazin-1-yl)tetrahydro-2H-pyran-4-yl)(pyridin-2-yl)methanone] | < 500 nM |
| CC(C)CN1CCN(C2(C(=O)c3ccccn3)CCOC(C)(C)C2)CC1 (centres unmarked) [Example 14, (4-(4-isobutylpiperazin-1-yl)-2,2-dimethyltetrahydro-2H-pyran-4-yl)(pyridin-2-yl)methanone] | > 500 nM |

Same assay, conditions: μ and σ1 dual binding, one class symbol for both Ki-σ1 (human σ1 receptor, A1) and Ki-μ (human μ-opioid receptor, A2)

| SMILES | Ki |
| --- | --- |
| CC(C)C1(N2CCN(CCc3cc(F)ccc3F)CC2)CCOC(C)(C)C1 (centres unmarked) [Example 92, 1-(2,5-difluorophenethyl)-4-(4-isopropyl-2,2-dimethyltetrahydro-2H-pyran-4-yl)piperazine] | < 500 nM |
| CN(Cc1ccccc1)[C@H]1CCN([C@@]2(C(=O)c3ccccn3)CCOC(C)(C)C2)C1 [Example 140, ((S)-4-((S)-3-(benzyl(methyl)amino)pyrrolidin-1-yl)-2,2-dimethyltetrahydro-2H-pyran-4-yl)(pyridin-2-yl)methanone] | < 500 nM |
| CC1(C)CC(Cc2ccccc2)(N2CCN(Cc3ccccc3)CC2)CCO1 (centres unmarked) [Example 40, 1-benzyl-4-(4-benzyl-2,2-dimethyltetrahydro-2H-pyran-4-yl)piperazine] | < 100 nM |
| CN(Cc1ccccc1)[C@H]1CCN(C2(C(=O)c3ccccn3)CCOC(C)(C)C2)C1 (stereo partly drawn) [Example 138, (4-((S)-3-(benzyl(methyl)amino)pyrrolidin-1-yl)-2,2-dimethyltetrahydro-2H-pyran-4-yl)(pyridin-2-yl)methanone] | > 500 nM |
| CC1(C)CC(C(=O)c2ccccn2)(C2CCN(Cc3ccccc3)CC2)CCO1 (centres unmarked) [Example 22, (4-(1-benzylpiperidin-4-yl)-2,2-dimethyltetrahydro-2H-pyran-4-yl)(pyridin-2-yl)methanone] | < 500 nM |
| CN(Cc1ccccc1)[C@@H]1CCN([C@]2(C(=O)c3ccccn3)CCOC(C)(C)C2)C1 [Example 142] | < 100 nM |
| COCCC1(N2CCN(CCc3ccccc3)CC2)CCOC(C)(C)C1 (centres unmarked) [Example 49, 1-(4-(2-Methoxyethyl)-2,2-dimethyltetrahydro-2H-pyran-4-yl)-4-phenethylpiperazine] | < 500 nM |
| CC1(C)CC(C(=O)c2ccccn2)(N2CCN(CCc3ccccc3)CC2)CCO1 (centres unmarked) [Example 54, (2,2-dimethyl-4-(4-phenethylpiperazin-1-yl)tetrahydro-2H-pyran-4-yl)(pyridin-2-yl)methanone] | < 500 nM |
